Test [1] addresses T1, human recombinant Aurora A (Homo sapiens, UniProt O14965).
T1 construct: purchased ThermoFisher PR5935A
T1 sequence (O14965 1-403): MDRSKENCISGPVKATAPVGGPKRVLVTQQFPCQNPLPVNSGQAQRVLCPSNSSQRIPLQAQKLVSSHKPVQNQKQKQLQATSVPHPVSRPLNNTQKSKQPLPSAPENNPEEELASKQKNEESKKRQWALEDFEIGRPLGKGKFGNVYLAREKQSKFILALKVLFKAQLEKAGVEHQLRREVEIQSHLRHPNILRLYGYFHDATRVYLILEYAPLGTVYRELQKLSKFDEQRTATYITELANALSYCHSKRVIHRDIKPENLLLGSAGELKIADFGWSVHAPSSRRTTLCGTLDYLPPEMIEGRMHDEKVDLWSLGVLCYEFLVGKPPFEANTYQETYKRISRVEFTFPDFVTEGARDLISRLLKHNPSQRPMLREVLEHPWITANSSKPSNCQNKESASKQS
Description: Aurora A Kinase Biochemical Assay (ADP-Glo). Particulars: selectivity ratio Aurora A vs PLK4. How it is done:
(§1) Activity of human recombinant Aurora A (ThermoFisher, cat #PR5935A) was measured by quantification of adenosine diphosphate (ADP) using the ADP-Glo Kinase Assay Kit (Promega, cat #V9102). […] 5 μL of 5.0 nM Aurora A in assay buffer (50 mM HEPES, pH 7.5, 0.01% Brij-35, 0.01% BSA, 10 mM MgCl2, 1 mM EGTA, 1 mM DTT) was added to the plates. Test compounds and Aurora A were incubated for 15 minutes at room temperature (RT). […] Reactions were stopped and the remaining ATP depleted by adding 10 uL of ADP-Glo reagent (Promega, cat #V912B) and incubating for 40 minutes at RT. The simultaneous conversion of the remaining ADP to ATP and measurement of the newly synthesized ATP was achieved by addition of 20 μL Kinase Detection reagent (Promega, cat #V914B), incubation for 30 min at RT, and luminescence detection using the EnVision plate reader (PerkinElmer). […] The IC50 values reported in Table 2 were determined using four parameter non-linear regression curve fit.
(ADP-Glo first removes unused ATP, then detects ADP through luciferase.)

In another test the target is T2, human recombinant PLK4 (Homo sapiens, UniProt O00444).
T2 construct: purchased ThermoFisher 4PV6396
T2 sequence (O00444 1-970): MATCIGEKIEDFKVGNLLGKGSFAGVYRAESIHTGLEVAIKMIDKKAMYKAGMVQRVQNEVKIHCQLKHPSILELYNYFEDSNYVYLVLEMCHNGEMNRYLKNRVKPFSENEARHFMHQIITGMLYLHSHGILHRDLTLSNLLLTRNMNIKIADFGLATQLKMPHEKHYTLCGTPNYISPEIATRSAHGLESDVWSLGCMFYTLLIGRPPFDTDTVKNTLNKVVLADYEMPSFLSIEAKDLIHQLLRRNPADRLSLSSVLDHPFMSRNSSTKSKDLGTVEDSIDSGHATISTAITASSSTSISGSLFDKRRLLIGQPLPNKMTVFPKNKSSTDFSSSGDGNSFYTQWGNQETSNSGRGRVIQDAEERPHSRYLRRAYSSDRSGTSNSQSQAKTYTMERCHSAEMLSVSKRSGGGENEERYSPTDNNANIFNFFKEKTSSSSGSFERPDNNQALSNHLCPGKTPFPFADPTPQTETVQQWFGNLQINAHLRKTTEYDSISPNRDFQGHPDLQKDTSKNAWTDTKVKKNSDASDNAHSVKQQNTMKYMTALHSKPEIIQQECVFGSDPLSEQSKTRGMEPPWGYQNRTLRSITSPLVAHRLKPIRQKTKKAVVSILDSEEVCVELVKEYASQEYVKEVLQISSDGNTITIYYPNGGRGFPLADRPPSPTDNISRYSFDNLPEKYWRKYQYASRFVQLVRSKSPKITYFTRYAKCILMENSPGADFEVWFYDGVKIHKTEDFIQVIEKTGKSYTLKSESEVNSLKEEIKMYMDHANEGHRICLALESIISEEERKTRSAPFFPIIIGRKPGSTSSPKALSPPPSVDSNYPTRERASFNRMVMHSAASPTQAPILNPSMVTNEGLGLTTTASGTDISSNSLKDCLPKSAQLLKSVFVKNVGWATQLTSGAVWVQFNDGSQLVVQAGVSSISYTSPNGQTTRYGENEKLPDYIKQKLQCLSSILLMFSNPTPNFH
Description: PLK4 Biochemical Assay (ADP-Glo). The procedure: 5 μL of 1.0 nM PLK4 protein in assay buffer (50 mM HEPES, pH 7.5, 0.01% Brij-35, 0.01% BSA, 10 mM MgCl2, 1 mM EGTA, 1 mM DTT) was added to the plates. Test compounds and PLK4 were incubated for 15 minutes at room temperature (RT). […] The IC50 values reported in Table 2 were determined using four parameter non-linear regression curve fit.

Test [2] concerns the target T3, human recombinant Aurora B (Homo sapiens, UniProt Q96GD4).
T3 construct: purchased ThermoFisher PR9210B
Description: Aurora B Kinase Biochemical Assay (ADP-Glo). The settings on record: selectivity ratio Aurora B vs PLK4. How it is done:
as §1, with “Aurora B” for “Aurora A”, “cat #PR9210B)” for “cat #PR5935A)”, “of 20” for “of 5.0”

T3 sequence (Q96GD4 whole entry): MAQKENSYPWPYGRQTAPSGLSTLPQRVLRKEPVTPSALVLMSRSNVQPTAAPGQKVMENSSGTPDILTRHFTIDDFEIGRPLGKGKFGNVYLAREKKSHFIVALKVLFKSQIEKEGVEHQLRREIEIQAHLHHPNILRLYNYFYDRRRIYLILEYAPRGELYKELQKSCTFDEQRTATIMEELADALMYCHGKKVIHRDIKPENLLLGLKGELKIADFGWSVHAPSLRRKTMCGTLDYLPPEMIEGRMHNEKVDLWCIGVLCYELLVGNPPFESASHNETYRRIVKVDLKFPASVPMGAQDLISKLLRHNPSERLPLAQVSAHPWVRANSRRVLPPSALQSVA

As for `COc1ccc2c(c1)[C@]1(C[C@H]1c1ccc3c(Nc4ncc(P(C)(C)=O)cc4OC)n[nH]c3c1)C(=O)N2` [Example 225, (1R,2S)-2-(3-{[5-(dimethylphosphoryl)-3-methoxypyridin-2-yl]amino}-1H-indazol-6-yl)-5′-methoxyspiro[cyclopropane-1,3′-indol]-2′(1′H)-one], in test [1], the “[Aurora A IC50 (nM)]/[PLK4 IC50 (nM)]” value is recorded as 1884.6028. Besides, the IC50 (usually the concentration that inhibits the measured activity by half) at human recombinant PLK4 came to 6.12 nM. For the same compound, the “[Aurora B IC50 (nM)]/[PLK4 IC50 (nM)]” value in test [2] turned out to be 381.4972.

As to `COc1ccc2c(c1)[C@]1(C[C@H]1c1ccc3c(Nc4cc(OC)c(S(N)(=O)=O)cc4OC)n[nH]c3c1)C(=O)N2` [Example 212, 2,5-Dimethoxy-4-({6-[(1R,2S)-5′-methoxy-2′-oxo-1′,2′-dihydrospiro[cyclopropane-1,3′-indol]-2-yl]-1H-indazol-3-yl}amino)benzene-1-sulfonamide], in test [2], the “[Aurora B IC50 (nM)]/[PLK4 IC50 (nM)]” value is 280.

Take `COc1ccc2c(c1)[C@]1(C[C@H]1c1ccc3c(Nc4nccc5c4OC[C@H]5CO)n[nH]c3c1)C(=O)N2` (single isomer, unassigned) [Example 34]: in test [1], the “[Aurora A IC50 (nM)]/[PLK4 IC50 (nM)]” value was 893.3126. Further, the “[Aurora B IC50 (nM)]/[PLK4 IC50 (nM)]” value in test [2] came out at 19.96.

For the compound `COc1cnc(C)nc1Nc1n[nH]c2cc([C@@H]3C[C@@]34C(=O)Nc3ccc(OC(F)(F)F)cc34)ccc12` [Example 138, (1R,2S)-2-{3-[(5-methoxy-2-methylpyrimidin-4-yl)amino]-1H-indazol-6-yl}-5′-(trifluoromethoxy)spiro[cyclopropane-1,3′-indol]-2′(1′H)-one], the “[Aurora A IC50 (nM)]/[PLK4 IC50 (nM)]” value in test [1] is 70. In addition, the “[Aurora B IC50 (nM)]/[PLK4 IC50 (nM)]” value in test [2] was 36.

Regarding `COc1ccc2c(c1)[C@]1(C[C@H]1c1ccc3c(Nc4ncnc(N5CCOCC5)c4OC(F)F)n[nH]c3c1)C(=O)N2` [Example 109, (1R,2S)-2-(3-{[5-(difluoromethoxy)-6-(morpholin-4-yl)pyrimidin-4-yl]amino}-1H-indazol-6-yl)-5′-methoxyspiro[cyclopropane-1,3′-indol]-2′(1′H)-one], the “[Aurora A IC50 (nM)]/[PLK4 IC50 (nM)]” value in test [1] is given as 50000.

On to `COc1cnc(C)nc1Nc1n[nH]c2cc([C@@H]3C[C@@]34C(=O)Nc3ccc(C(F)(F)F)cc34)ccc12` [Example 137, (1R,2S)-2-{3-[(5-methoxy-2-methylpyrimidin-4-yl)amino]-1H-indazol-6-yl}-5′-(trifluoromethyl)spiro[cyclopropane-1,3′-indol]-2′(1′H)-one], for which, in test [1], the “[Aurora A IC50 (nM)]/[PLK4 IC50 (nM)]” value amounted to 62. For the same compound, the “[Aurora B IC50 (nM)]/[PLK4 IC50 (nM)]” value in test [2] was 72.

Take `COc1ccc2c(c1)[C@]1(C[C@H]1c1ccc3c(Nc4nn(C)cc4OC)n[nH]c3c1)C(=O)N2.O=C(O)C(F)(F)F` [Example 79, (1R,2S)-5′-methoxy-2-{3-[(4-methoxy-1-methyl-1H-pyrazol-3-yl)amino]-1H-indazol-6-yl}spiro[cyclopropane-1,3′-indol]-2′(1′H)-one]: the “[Aurora A IC50 (nM)]/[PLK4 IC50 (nM)]” value in test [1] came out at 210.5378. Moreover, the “[Aurora B IC50 (nM)]/[PLK4 IC50 (nM)]” value in test [2] is 6.986.

For the compound `COc1ccc2c(c1)[C@]1(C[C@H]1c1ccc3c(Nc4nccc5c4OC[C@@H]5CO)n[nH]c3c1)C(=O)N2` (single isomer, unassigned) [Example 33], the “[Aurora A IC50 (nM)]/[PLK4 IC50 (nM)]” value in test [1] is reported as 355.9465. In addition, the “[Aurora B IC50 (nM)]/[PLK4 IC50 (nM)]” value in test [2] is 8.474.

Consider `COc1cnc(C)nc1Nc1n[nH]c2cc([C@@H]3C[C@]34C(=O)Nc3ccc(OC(F)(F)F)cc34)ccc12` [Example 139, (1S,2S)-2-{3-[(5-methoxy-2-methylpyrimidin-4-yl)amino]-1H-indazol-6-yl}-5′-(trifluoromethoxy)spiro[cyclopropane-1,3′-indol]-2′(1′H)-one], for which the “[Aurora A IC50 (nM)]/[PLK4 IC50 (nM)]” value in test [1] is reported as 7.4. Besides, in test [2], the “[Aurora B IC50 (nM)]/[PLK4 IC50 (nM)]” value came to 9.6.

Consider `CCOc1cc(S(=O)(=O)NC)cnc1Nc1n[nH]c2cc([C@@H]3C[C@@]34C(=O)Nc3ccc(OC)cc34)ccc12` [Example 275, 5-ethoxy-6-({6-[(1R,2S)-5′-methoxy-2′-oxo-1′,2′-dihydrospiro[cyclopropane-1,3′-indol]-2-yl]-1H-indazol-3-yl}amino)-N-methylpyridine-3-sulfonamide], for which the “[Aurora B IC50 (nM)]/[PLK4 IC50 (nM)]” value in test [2] is 230.

The values are drawn from US20240270722A1, “POLO LIKE KINASE 4 INHIBITORS” (ORIC Pharmaceuticals, Inc., priority 2021, published 2024).
